Assays:
recombinant human ALDH-1 = biological target: T1, recombinant human ALDH-1 (Homo sapiens, UniProt P00352); assay: ALDH-1 inhibition assay; type: biochemical; conditions: 60 min pre-incubation; 10 μM = highest concentration tested; read-out: Enzymatic Assays IC50 ALDH1
T1 sequence (P00352 1-501): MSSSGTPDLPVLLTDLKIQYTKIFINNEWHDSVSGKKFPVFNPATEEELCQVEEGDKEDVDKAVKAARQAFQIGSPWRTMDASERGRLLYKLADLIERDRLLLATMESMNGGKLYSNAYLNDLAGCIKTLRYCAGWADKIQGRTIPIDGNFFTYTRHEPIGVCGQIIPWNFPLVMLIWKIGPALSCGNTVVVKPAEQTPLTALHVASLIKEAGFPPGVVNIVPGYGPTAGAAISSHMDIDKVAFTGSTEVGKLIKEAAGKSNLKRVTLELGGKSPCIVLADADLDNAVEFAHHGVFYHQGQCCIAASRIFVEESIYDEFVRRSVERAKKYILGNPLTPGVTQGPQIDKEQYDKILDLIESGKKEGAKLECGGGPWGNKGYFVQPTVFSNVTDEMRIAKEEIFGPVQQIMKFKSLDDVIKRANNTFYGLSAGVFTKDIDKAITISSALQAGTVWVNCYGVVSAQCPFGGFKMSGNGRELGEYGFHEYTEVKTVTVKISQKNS
Description: B. ALDH-1 inhibition assay: The ALDH-1 reaction mixture used in the assay contained 100 μM formaldehyde, 2.5 mM NAD+, 20 mM NaCl, 10 mM MgCl2, 1 mM dithiothreitol (DTT; reducing agent), and 50 nM recombinant human ALDH-1 in 50 mM Hepes buffer, pH 7.5 in a final volume of 10 μL using 384-well Corning 3820 plates. After 60 min of pre-incubation of the test ALDH-2 inhibitor compound with ALDH-1, the reaction was started by adding NAD+ and formaldehyde and the assay reaction mixture was allowed to proceed for 60 minutes. Activity of the ALDH-1 enzyme was determined by monitoring NADH formation using Perkin-Elmer Envision Reader with excitation and emission wavelengths set at 340 and 460 nm, respectively.

recombinant human ALDH-2 = biological target: T2, recombinant human ALDH-2 (Homo sapiens, UniProt P05091); assay: ALDH-2 inhibition assay; type: biochemical; conditions: 60 min pre-incubation; 10 μM = highest concentration tested; read-out: Enzymatic Assays IC50 ALDH2
T2 sequence (P05091 18-517): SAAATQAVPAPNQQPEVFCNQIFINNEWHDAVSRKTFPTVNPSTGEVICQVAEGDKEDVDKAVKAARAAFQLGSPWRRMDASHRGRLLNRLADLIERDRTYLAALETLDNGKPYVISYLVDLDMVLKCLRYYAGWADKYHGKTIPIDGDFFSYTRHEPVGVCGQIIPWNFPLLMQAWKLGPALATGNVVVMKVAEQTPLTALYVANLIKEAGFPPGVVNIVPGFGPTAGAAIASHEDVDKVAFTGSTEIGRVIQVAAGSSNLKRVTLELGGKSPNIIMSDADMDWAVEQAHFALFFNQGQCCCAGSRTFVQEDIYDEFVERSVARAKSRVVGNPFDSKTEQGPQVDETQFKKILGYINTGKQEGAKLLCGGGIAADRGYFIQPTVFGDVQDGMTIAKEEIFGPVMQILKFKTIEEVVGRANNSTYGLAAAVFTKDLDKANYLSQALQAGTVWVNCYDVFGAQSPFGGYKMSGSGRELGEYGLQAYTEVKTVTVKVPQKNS
Description: A. ALDH-2 inhibition assay: The ALDH-2 reaction mixture used in the assay contained 125 μM formaldehyde, 75 μM NAD+, 20 mM NaCl, 10 mM MgCl2, and 20 nM recombinant human ALDH-2 in 50 mM Hepes buffer, pH 7.5 in a final volume of 10 μL using 384-well Corning 3820 plates. After 60 min of pre-incubation of the test ALDH-2 inhibitor compound with ALDH-2, the reaction was started by adding NAD+ and formaldehyde and the assay reaction mixture was allowed to proceed for 60 minutes. Activity of the ALDH-2 enzyme was determined by monitoring NADH formation using Perkin-Elmer Envision Reader with excitation and emission wavelengths set at 340 and 460 nm, respectively.

HepaRG spheroids = assay: HepaRG 3D spheroid assay (hepatotoxic liability); type: cell-based; conditions: minimum effective concentration crossing vehicle control threshold of cell health marker; dosed days 1, 4, 7, 10, 13; 100 μM = highest concentration tested
Source text: See e.g., Walker et al., “The evolution of strategies to minimise the risk of human drug-induced liver injury (DILI) in drug discovery and development,” (2020) Archives of Toxicology, Vol. 94: 2559-2585, which is hereby incorporated by reference herein in its entirety. […] In applying the HepaRG spheroid assay analysis to determining the hepatoxic liability of ALDH-2 inhibitor compounds, consideration is made of the binding to plasma protein and the limitations to CNS penetration due to the blood-brain barrier.
E. HepaRG® 3D spheroid assay: The HepaRG 3D spheroid assay is described in Walker et al., “The evolution of strategies to minimise the risk of human drug-induced liver injury (DILI) in drug discovery and development,” (2020) Archives of Toxicology, Vol. 94: 2559-2585. Briefly, HepaRG® cells were seeded into ultra-low adhesion 96-well black walled clear bottomed spheroid microplates. […] At the end of the incubation period, the spheroids were loaded with the relevant dye/antibody for each cell health marker (spheroid count, spheroid size, DNA structure, mitochondrial mass, mitochondrial membrane potential, oxidative stress, glutathione content, and cellular ATP). The plates were then scanned using an automated fluorescent cellular imager, ArrayScan® (Thermo Scientific Cellomics).

MAO-A = biological target: T3, MAO-A (Homo sapiens, UniProt P21397); assay: MAO-A inhibition assay (luminogenic substrate); type: biochemical; conditions: 20 min pre-incubation; 10 μM = highest concentration tested; read-out: Enzymatic Assays IC50 MAO-A
T3 sequence (P21397 1-527): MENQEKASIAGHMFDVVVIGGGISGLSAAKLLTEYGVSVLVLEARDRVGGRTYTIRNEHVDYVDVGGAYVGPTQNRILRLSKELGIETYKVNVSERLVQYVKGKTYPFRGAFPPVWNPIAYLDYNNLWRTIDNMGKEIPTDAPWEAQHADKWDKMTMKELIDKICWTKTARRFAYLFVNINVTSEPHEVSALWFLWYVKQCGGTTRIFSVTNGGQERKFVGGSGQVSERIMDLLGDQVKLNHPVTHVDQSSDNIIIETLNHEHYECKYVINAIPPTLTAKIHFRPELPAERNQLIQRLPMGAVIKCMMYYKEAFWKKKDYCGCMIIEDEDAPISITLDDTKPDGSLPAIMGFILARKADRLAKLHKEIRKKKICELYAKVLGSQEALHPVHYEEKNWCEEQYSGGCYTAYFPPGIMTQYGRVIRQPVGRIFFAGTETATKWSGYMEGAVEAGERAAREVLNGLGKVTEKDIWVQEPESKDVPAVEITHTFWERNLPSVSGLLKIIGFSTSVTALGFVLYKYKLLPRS
Description: (§1) D. MAO-A and MAO-B inhibition assays: MAO assays included luminogenic MAO substrate, reaction buffers, Luciferin Detection, and a reconstitution buffer with esterase. The MAO reaction mixture used in the assay included microsome contained MAO-A (2 μg) or MAO-B (10 μg), 160 μM substrate for MAO-A or 16 μM substrate for MAO-B, MAO-A buffer (100 mM Hepes buffer, pH 7.5, 5% glycerol) or MAO-B buffer (100 mM Hepes, pH 7.5, 5% glycerol, 10% dimethyl sulfoxide) in a final volume of 30 μL. After 20 minutes of pre-incubation of the MAO-A or MAO-B enzyme with the test ALDH-2 inhibitor compound, the reaction was initiated by adding enzyme substrate and the […] reaction was allowed to proceed for 60 minutes. Reconstituted Luciferin Detection Reagent (30 μL) was then added is added to simultaneously stop the MAO reaction and convert the methyl ester derivative to luciferin and produce light. The amount of light produced is directly proportional to the activity of MAO. The mixtures were further incubated for 20 minutes and activity of the enzyme was determined using Perkin-Elmer Envision Reader.

MAO-B = biological target: T4, MAO-B (Homo sapiens, UniProt P27338); assay: MAO-B inhibition assay (luminogenic substrate); type: biochemical; conditions: 20 min pre-incubation; 10 μM = highest concentration tested; read-out: Enzymatic Assays IC50 MAO-B
T4 sequence (P27338 1-520): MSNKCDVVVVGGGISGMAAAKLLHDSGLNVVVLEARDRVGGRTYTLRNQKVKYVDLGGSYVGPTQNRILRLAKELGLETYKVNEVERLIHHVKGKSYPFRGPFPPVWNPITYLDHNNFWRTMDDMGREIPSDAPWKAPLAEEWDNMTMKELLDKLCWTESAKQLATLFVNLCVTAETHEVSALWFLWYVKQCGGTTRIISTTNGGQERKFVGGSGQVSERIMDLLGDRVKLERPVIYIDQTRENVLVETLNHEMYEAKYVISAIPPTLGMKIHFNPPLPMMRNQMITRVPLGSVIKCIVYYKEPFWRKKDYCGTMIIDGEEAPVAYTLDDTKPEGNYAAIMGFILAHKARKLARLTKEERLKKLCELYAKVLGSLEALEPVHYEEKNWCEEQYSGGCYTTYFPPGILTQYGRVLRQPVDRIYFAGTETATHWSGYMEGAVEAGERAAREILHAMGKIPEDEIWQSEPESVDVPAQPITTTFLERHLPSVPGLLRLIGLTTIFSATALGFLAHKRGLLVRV
Description: as §1

Row | IC50 (recombinant human ALDH-1) [µM] | IC50 (recombinant human ALDH-2) [µM] | IC50 (MAO-A) [µM] | IC50 (MAO-B) [µM] | SMILES | HepaRG 3D Spheroid MEC (HepaRG spheroids)
1 | > 10 | 0.012 | > 10 | > 10 | Cc1cccc(Cl)c1C(=O)NCc1ccc(N2CCNC(=O)C2)nc1 [(1a), 2-chloro-6-methyl-N-((6-(3-oxopiperazin-1-yl)pyridin-3-yl)methyl)benzamide] | 54.1 µM
2 | > 10 | 0.058 | > 10 | > 10 | O=C1CN(c2ccc(CNC(=O)c3ccccc3Cl)cn2)CCN1 [(1b), 2-Chloro-N-((6-(3-oxopiperazin-1-yl)pyridin-3-yl)methyl)benzamide] | No Effect
3 | > 10 | 0.035 | > 10 | > 10 | Cc1nccc(Cl)c1C(=O)NCc1ccc(N2CCNC(=O)C2)nc1 [(1c), 4-Chloro-2-methyl-N-((6-(3-oxopiperazin-1-yl)pyridin-3-yl)methyl)nicotinamide] | No Effect
4 | > 10 | 0.008 | > 10 | > 10 | O=C1CN(c2ccc(CNC(=O)c3c(Cl)cccc3Cl)cn2)CCN1 [(1d), 2,6-Dichloro-N-((6-(3-oxopiperazin-1-yl)pyridin-3-yl)methyl)benzamide] | 29.4 µM
